Columns and labels:
[1] = target: T1, EP4 (Homo sapiens, UniProt P35408); assay: Radioligand binding, EP4; set-up: expressed in transfected cells; membrane fraction; settings: [3H]PGE2 competition
Procedure: (§1) Data from running binding and activity studies on the compounds of the invention were carried out as described in U.S. Pat. No. 7,427,685, the contents of which are incorporated herein by reference.
(§2) Cells Stably Expressing EP1, EP2, EP4, and FP Receptors
(§3) HEK-293 cells stably expressing the human or feline FP receptor, or EP1, EP2, or EP4 receptors were washed with TME buffer, scraped from the bottom of the flasks, and homogenized for 30 sec using a Brinkman PT 10/35 polytron. TME buffer was added to achieve a final 40 ml volume in the centrifuge tubes (the composition of TME is 100 mM TRIS base, 20 mM MgCl2, […]; ION HCl is added to achieve a pH of 7.4).
(§4) The cell homogenate was centrifuged at 19000 rpm for 20 min at 4° C. using a Beckman Ti-60 rotor. The resultant pellet was resuspended in TME buffer to give a final 1 mg/ml protein concentration, as determined by Biorad assay. Radioligand binding competition assays vs. [^3H-]17-phenyl PGF2α (5 nM) were performed in a 100 μl volume for 60 min. Binding reactions were started by adding plasma membrane fraction. The reaction was terminated by the addition of 4 ml ice-cold TRIS-HCl buffer and rapid filtration through glass fiber GF/B filters using a Brandel cell harvester. The filters were washed 3 times with ice-cold buffer and oven dried for one hour.
(§5) [^3H-] PGE2 (specific activity 180 Ci mmol) was used as the radio ligand for EP receptors. [^3H] 17-phenyl PGF2α was employed for FP receptor binding studies. Binding studies employing EP1, EP2, EP4 and FP receptors were performed in duplicate in at least three separate experiments. A 200 μl assay volume was used. Incubations were for 60 min at 25° C. and were terminated by the addition of 4 ml of ice-cold 50 mM TRIS-HCl, followed by rapid filtration through Whatman GF/B filters and three additional 4 ml washes in a cell harvester (Brandel). Competition studies were performed using a final concentration of 5 nM [^3H]-PGE2, or 5 nM [^3H] 17-phenyl PGF2α and non-specific binding determined with 10^−5M of unlabeled PGE2, or 17-phenyl PGF2α, according to receptor subtype studied.

[2] = target: T1, EP4; assay: cAMP assay, EP4; type: cell-based; set-up: expressed in transfected cells; host or cells: HEK-EBNA cells; settings: HEK-EBNA cells expressing EP4
Procedure: A 384-well drug plate was prepared to contain 6 test compounds, PGE2 and cAMP in 16 serial dilutions in triplicate, using a Biomek station. HEK-EBNA cells expressing a target PG receptor subtype (EP2 or EP4) were suspended in a stimulation buffer (HBSS, 0.1% BSA, 0.5 mM IBMX and 5 mM HEPES, pH 7.4) in a density of 10^4 cells/5 μL. The reaction was initiated by mixing 5 μL drug dilutions with 5 μL of HEK-EBNA cells in a well, carried out for 30 min at room temperature, and followed by the addition of 5 μL anti-cAMP acceptor beads in the control buffer with Tween-20 (25 mM NaCl, 0.03% Tween-20, 5 mM HEPES, pH 7.4). After 30 min in the dark at room temperature, the mixtures were incubated with 15 μL biotinylated-cAMP/strepavidin donor beads in Lysis/Detection buffer (0.1% BSA, 0.3% Tween-20 and 5 mM HEPES, pH 7.4) for 45 min at the room temperature. Fluorescence changes were read using a Fusion-alpha HT microplate reader.

[3] = target: EP2 (Homo sapiens, UniProt P43116); assay: Ki competition binding, EP2; set-up: expressed in transfected cells; settings: [3H]PGE2 competition; NA = no activity
Chain of EP2 (P43116 whole entry): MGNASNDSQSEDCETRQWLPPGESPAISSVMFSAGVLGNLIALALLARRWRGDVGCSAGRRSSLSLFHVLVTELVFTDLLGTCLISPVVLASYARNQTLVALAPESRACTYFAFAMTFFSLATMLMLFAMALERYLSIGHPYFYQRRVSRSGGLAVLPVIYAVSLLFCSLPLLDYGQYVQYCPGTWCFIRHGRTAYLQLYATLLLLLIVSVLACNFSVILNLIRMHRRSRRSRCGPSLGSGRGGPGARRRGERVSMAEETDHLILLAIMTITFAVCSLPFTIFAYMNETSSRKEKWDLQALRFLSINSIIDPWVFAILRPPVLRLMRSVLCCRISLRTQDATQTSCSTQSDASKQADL
Procedure: as §1
Competition binding experiments were performed in a medium containing Hank's balanced salt solution, Hepes 20 mM, pH 7.3, membranes (˜60 μg protein) or 2×10^5 cells from HEK 293 cells stably expressing human EP2 receptors, [^3H]PGE2 (10 nM) and various concentrations of test compounds in a total volume of 300 μl. Reaction mixtures were incubated at 23° C. for 60 min, and were filtered over Whatman GF IB filters under vacuum. Filters were washed three times with 5 ml ice-cold buffer containing 50 mM Tris/HCl (PH 7.3). Non-specific binding was estimated in the presence of excess unlabeled PGE2 (10 μM). Binding data fitted to the binding model for a single class of binding sites, using nonlinear regression analysis. IC50 values thus obtained were converted to Ki using the equation of Ki=(IC50/(1+[L]/KD) where [L] represents PGE2 concentration (10 nM) and KD the dissociation constant for [^3H]PGE2 at human EP2 receptors (40 nM).
as §2, §3, §4, §5

T1 sequence (P35408 whole entry): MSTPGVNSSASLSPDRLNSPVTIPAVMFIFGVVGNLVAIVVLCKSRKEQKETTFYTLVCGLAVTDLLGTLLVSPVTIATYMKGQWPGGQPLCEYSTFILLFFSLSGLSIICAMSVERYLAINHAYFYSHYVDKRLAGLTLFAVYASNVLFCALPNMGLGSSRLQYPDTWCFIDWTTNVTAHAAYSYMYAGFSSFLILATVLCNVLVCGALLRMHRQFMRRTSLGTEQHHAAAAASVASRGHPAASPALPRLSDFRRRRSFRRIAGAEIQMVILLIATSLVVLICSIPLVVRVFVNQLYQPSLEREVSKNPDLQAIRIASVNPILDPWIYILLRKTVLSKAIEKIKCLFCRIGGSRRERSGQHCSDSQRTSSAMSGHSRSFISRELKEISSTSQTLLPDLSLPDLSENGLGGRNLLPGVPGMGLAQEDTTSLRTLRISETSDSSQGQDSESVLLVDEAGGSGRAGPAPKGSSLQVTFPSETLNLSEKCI

Row | SMILES | Ki [1] | EC50 [2] | Ki [3] | EP4 data cAMP EC50 [2]
1 | COc1cc(/C=C2\[C@@H]3CC[C@@H](C3)[C@H]2C(=O)NCc2ccc(C(=O)O)cc2)cc(OC)c1 (racemic) [Example 37, 4-(((1S,2R,4R,E)-3-(3,5-Dimethoxybenzylidene)bicyclo[2.2.1]heptane-2-carboxamido)methyl)benzoic Acid] | 323 nM | > 10000 nM |  | 
2 | COc1cc(CC2C3CCC(C3)C2C(=O)NCc2ccc(C(=O)O)cc2)cc(OC)c1 (racemic) [Example 39, 4-((3-(3,5-Dimethoxybenzyl)bicyclo[2.2.1]heptane-2-carboxamido)methyl)benzoic Acid] | 77 nM | > 10000 nM |  | 
3 | COc1cc(CC2CCCC2C(=O)NCc2ccc(C(=O)O)cc2)cc(OC)c1 (single isomer, unassigned) [Example 1, 4-((2-(3,5-Dimethoxybenzyl)cyclopentanecarboxamido)methyl)benzoic Acid] | 30 nM |  | 6190 nM | weak
4 | COc1cc(CC2CCCC2C(=O)NCc2ccc(C(=O)O)cc2)cc(OC)c1 (single isomer, unassigned) [Example 2, 4-((2-(3,5-Dimethoxybenzyl)cyclopentanecarboxamido)methyl)benzoic Acid] | 84 nM | 9 nM | > 10000 nM | 
5 | COc1cccc(CC2CCCCC2C(=O)NCc2ccc(C(=O)O)cc2)c1OC (single isomer, unassigned) [Example 15, 4-((2-(2,3-Dimethoxybenzyl)cyclohexanecarboxamido)methyl)benzoic Acid] | 17 nM | > 10000 nM | 7480 nM | 
6 | COc1cccc(CC2CCCCC2C(=O)NCc2ccc(C(=O)O)cc2)c1OC (single isomer, unassigned) [Example 16, 4-((2-(2,3-Dimethoxybenzyl)cyclohexanecarboxamido)methyl)benzoic Acid] | 114 nM | > 10000 nM | 4120 nM | 
7 | COc1ccc(OC)c(CC2CCCCC2C(=O)NCc2ccc(C(=O)O)cc2)c1 (single isomer, unassigned) [Example 18, 4-((2-(2,5-Dimethoxybenzyl)cyclohexanecarboxamido)methyl)benzoic Acid] | 16 nM | > 10000 nM | 462 nM | 
8 | COc1ccc(OC)c(CC2CCCCC2C(=O)NCc2ccc(C(=O)O)cc2)c1 (single isomer, unassigned) [Example 19, 4-((2-(2,5-Dimethoxybenzyl)cyclohexanecarboxamido)methyl)benzoic Acid] | 2 nM | 0.2 nM | 393 nM | 
9 | COc1ccc(CC2CCCCC2C(=O)NCc2ccc(C(=O)O)cc2)cc1OC (single isomer, unassigned) [Example 22, 4-((2-(3,4-Dimethoxybenzyl)cyclohexanecarboxamido)methyl)benzoic Acid] | 4 nM | > 10000 nM |  | 
10 | COc1ccc(CC2CCCCC2C(=O)NCc2ccc(C(=O)O)cc2)cc1OC (single isomer, unassigned) [Example 23, 4-((2-(3,4-Dimethoxybenzyl)cyclohexanecarboxamido)methyl)benzoic Acid] | 8 nM | > 10000 nM |  | 
11 | O=C(O)c1ccc(CNC(=O)C2CCCCC2Cc2ccccc2)cc1 (single isomer, unassigned) [Example 25, 4-((2-Benzylcyclohexanecarboxamido)methyl)benzoic Acid] | 58 nM | > 10000 nM | 4950 nM | 
12 | O=C(O)c1ccc(CNC(=O)C2CCCCC2Cc2ccccc2)cc1 (single isomer, unassigned) [Example 26, 4-((2-Benzylcyclohexanecarboxamido)methyl)benzoic Acid] | 116 nM | 35 nM | 2920 nM | 
13 | COc1cccc(CC2CCCCC2C(=O)NCc2ccc(C(=O)O)cc2)c1 (single isomer, unassigned) [Example 28, 4-((2-(3-Methoxybenzyl)cyclohexanecarboxamido)methyl)benzoic Acid] | 4 nM | > 10000 nM | 2350 nM | 
14 | COc1cccc(CC2CCCCC2C(=O)NCc2ccc(C(=O)O)cc2)c1 (single isomer, unassigned) [Example 29, 4-((2-(3-Methoxybenzyl)cyclohexanecarboxamido)methyl)benzoic Acid] | 19 nM | 4 nM | 2570 nM | 
15 | COc1ccccc1CC1CCCCC1C(=O)NCc1ccc(C(=O)O)cc1 (single isomer, unassigned) [Example 31, 4-((2-(2-Methoxybenzyl)cyclohexanecarboxamido)methyl)benzoic Acid] | 5 nM | > 10000 nM | 994 nM | 
16 | COc1ccccc1CC1CCCCC1C(=O)NCc1ccc(C(=O)O)cc1 (single isomer, unassigned) [Example 32, 4-((2-(2-Methoxybenzyl)cyclohexanecarboxamido)methyl)benzoic Acid] | 7 nM | > 10000 nM | 1320 nM | 
17 | COc1ccc(CC2CCCCC2C(=O)NCc2ccc(C(=O)O)cc2)cc1 (single isomer, unassigned) [Example 34, 4-((2-(4-Methoxybenzyl)cyclohexanecarboxamido)methyl)benzoic Acid] | 44 nM | > 10000 nM | > 10000 nM | 
18 | COc1ccc(CC2CCCCC2C(=O)NCc2ccc(C(=O)O)cc2)cc1 (single isomer, unassigned) [Example 35, 4-((2-(4-Methoxybenzyl)cyclohexanecarboxamido)methyl)benzoic Acid] | 86 nM | > 10000 nM | > 10000 nM | 
19 | CN(Cc1ccc(C(=O)O)cc1)C(=O)C1=C(Cc2cccc(C(F)(F)F)c2)CCC1 [Example 7, 4-((N-Methyl-2-(3-(trifluoromethyl)benzyl)cyclopent-1-enecarboxamido)methyl)benzoic Acid] | 1570 nM |  |  | 
20 | COc1cccc(CC2=C(C(=O)NCc3ccc(C(=O)O)cc3)CCCC2)c1OC [Example 14, 4-((2-(2,3-Dimethoxybenzyl)cyclohex-1-enecarboxamido)methyl)benzoic Acid] | 45 nM | > 10000 nM | 1190 nM | 
21 | COc1ccc(OC)c(CC2=C(C(=O)NCc3ccc(C(=O)O)cc3)CCCC2)c1 [Example 17, 4-((2-(2,5-Dimethoxybenzyl)cyclohex-1-enecarboxamido)methyl)benzoic Acid] | 8 nM | > 10000 nM | 403 nM | 
22 | COc1ccc(CC2=C(C(=O)NCc3ccc(C(=O)O)cc3)CCCC2)cc1OC [Example 21, 4-((2-(3,4-Dimethoxybenzyl)cyclohex-1-enecarboxamido)methyl)benzoic Acid] | 4 nM | > 10000 nM |  | 
23 | COc1cc(CC2=C(C(=O)NCc3ccc(C(=O)O)cc3)C3CCC2C3)cc(OC)c1 (centres unmarked) [Example 36, 4-((3-(3,5-Dimethoxybenzyl)bicyclo[2.2.1]hept-2-ene-2-carboxamido)methyl)benzoic Acid] | 1010 nM |  |  | 
24 | COc1cc(CC2C3CCC(C3)C2C(=O)NCc2ccc(C(=O)O)cc2)cc(OC)c1 (centres unmarked) [Example 38, 4-((3-(3,5-Dimethoxybenzyl)bicyclo[2.2.1]heptane-2-carboxamido)methyl)benzoic Acid] | 402 nM | > 10000 nM |  | 

From patent publication US10407382B2, “EP4 agonists as therapeutic compounds” (ALLERGAN, INC., priority 2014, dated 2019)
